Assays:
[1] = Brain penetration in mice; assay type: in vivo; conditions: for brain permeability / brain penetration: 5 mg/kg IP; for Kp at 60 min: mouse, brain and plasma, ip
[2] = Oral pharmacokinetics in mice; assay type: in vivo; conditions: oral gavage 50 mg/kg

SMILES	brain permeability / brain penetration ([1]; mice)	brain levels ([1]; mice, 60 min after IP injection, 5 mg/kg)	Kp at 60 min ([1]; 5 mg/kg)	plasma exposure [2]
Clc1cc(Br)cc(CN[C@H]2CCCN(c3nc4nc(Cl)ccc4[nH]3)C2)c1 [Compound 5b]	poor	undetectable		
CCOc1c(Br)cc(Br)cc1CN[C@H]1CCCN(c2nc3nc(Cl)ccc3[nH]2)C1 [Compound 5p]			0.044 ± 0.006	
CN(CCN[C@@H]1CCNc2c(Cl)cc(Cl)cc21)c1nc2nc(Cl)ccc2[nH]1 [Compound 13]	moderately good brain penetration		0.191 ± 0.075	low plasma exposure

Reference: PMC5542777 (Bioorganic & medicinal chemistry letters, 2017)
